Test results from PubChem BioAssay (NCI).
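Assay format: 96-well plates, 48-hour exposure. Here, GI50 denotes the concentration required for 50% inhibition of growth. TGI marks complete inhibition of growth.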

Experiments:
Assay in all cases: inhibition of tumour cell growth, NCI panel, 48 h
[1] = tested on: HOP-62 NSCLC
[2] = tested on: A498 renal
[3] = tested on: OVCAR-8 ovarian
[4] = tested on: NCI/ADR-RES ovarian
[5] = tested on: HL-60(TB) leukemia
[6] = tested on: PC-3 prostate
[7] = tested on: SNB-75 CNS
[8] = tested on: HT29 colon
[9] = tested on: UACC-62 melanoma
[10] = tested on: CCRF-CEM leukemia
[11] = tested on: A549 NSCLC
[12] = tested on: MDA-MB-435
[13] = tested on: HCT-116 colon
[14] = tested on: MDA-MB-231 breast
[15] = tested on: SK-MEL-28 melanoma
[16] = tested on: CAKI-1 renal
[17] = tested on: SR leukemia
[18] = tested on: LOX IMVI melanoma
[19] = tested on: SW-620 colon
[20] = tested on: M14 melanoma
[21] = tested on: T-47D breast
[22] = tested on: NCI-H23 lung
[23] = tested on: SNB-19 CNS
[24] = tested on: HOP-92 NSCLC
[25] = tested on: NCI-H226 lung
[26] = tested on: OVCAR-4 ovarian
[27] = tested on: RPMI-8226 leukemia
[28] = tested on: IGROV1 ovarian
[29] = tested on: UO-31 renal
[30] = tested on: SF-268 CNS
[31] = tested on: BT-549 breast
[32] = tested on: SN12C renal
[33] = tested on: OVCAR-5 ovarian
[34] = tested on: K-562 leukemia
[35] = tested on: HS 578T breast
[36] = tested on: MOLT-4 leukemia
[37] = tested on: NCI-H460 lung
[38] = tested on: OVCAR-3 ovarian
[39] = tested on: KM12 colon
[40] = tested on: SK-OV-3 ovarian
[41] = tested on: HCT-15 colon
[42] = tested on: TK-10 renal
[43] = tested on: DU-145 prostate
[44] = tested on: MALME-3M melanoma
[45] = tested on: RXF 393 renal
[46] = tested on: COLO 205 colon
[47] = tested on: SK-MEL-2 melanoma
[48] = tested on: NCI-H522 lung
[49] = tested on: SF-539 CNS
[50] = tested on: 786-0 renal
[51] = tested on: UACC-257 melanoma
[52] = tested on: U251 CNS
[53] = tested on: MCF7 breast
[54] = tested on: ACHN renal
[55] = tested on: HCC-2998 colon
[56] = tested on: SK-MEL-5 melanoma
[57] = tested on: SF-295 CNS

## CC(C)(C)c1[nH]nc2c1C(c1cc3ccccc3[nH]c1=O)Nc1cc(C(=O)Nc3ccc(Cl)cc3)ccc1N2 (centres undefined)
[1]
  GI50: 3.14 µM
  TGI: 10 µM
[2]
  GI50: 1580 nM
  TGI: 3.8 µM
[3]
  GI50: 3.04 µM
  TGI: 11 µM
[4]
  GI50: > 100 µM
  TGI: > 100 µM
[5]
  GI50: 2330 nM
  TGI: 5.64 µM
[6]
  GI50: 3.15 µM
  TGI: 11.7 µM
[7]
  GI50: 2270 nM
  TGI: 6.51 µM
[8]
  GI50: 3.46 µM
  TGI: 13 µM
[9]
  GI50: 2030 nM
  TGI: 4.41 µM
[10]
  GI50: 2160 nM
  TGI: > 21.6 µM
[11]
  GI50: 4.66 µM
  TGI: > 100 µM
[12]
  GI50: 1840 nM
  TGI: 4.84 µM
[13]
  GI50: 3.11 µM
  TGI: 10.7 µM
[14]
  GI50: 2260 nM
  TGI: 6.32 µM
[15]
  GI50: 3.76 µM
  TGI: 21.5 µM
[16]
  GI50: > 100 µM
  TGI: > 100 µM
[17]
  GI50: 2560 nM
  TGI: > 24.9 µM
[18]
  GI50: 2980 nM
  TGI: 9.21 µM
[19]
  GI50: 3.13 µM
  TGI: 12.3 µM
[20]
  GI50: 2120 nM
  TGI: 4.75 µM
[21]
  GI50: 2500 nM
  TGI: 9.14 µM
[22]
  GI50: 2600 nM
  TGI: 7.31 µM
[23]
  GI50: 2680 nM
  TGI: 11.9 µM
[24]
  GI50: 2030 nM
  TGI: 6.05 µM
[25]
  GI50: 2940 nM
  TGI: 11.1 µM
[26]
  GI50: 2120 nM
  TGI: 6.96 µM
[27]
  GI50: 1900 nM
  TGI: 5.27 µM
[28]
  GI50: 3.28 µM
  TGI: 8.95 µM
[29]
  GI50: 46 µM
  TGI: > 100 µM
[30]
  GI50: 3.66 µM
  TGI: 29.5 µM
[31]
  GI50: 2370 nM
  TGI: 6.65 µM
[32]
  GI50: 3.15 µM
  TGI: 14 µM
[33]
  GI50: 3.84 µM
  TGI: 39 µM
[34]
  GI50: 2940 nM
  TGI: > 54.9 µM
[35]
  GI50: 2380 nM
  TGI: > 28.8 µM
[36]
  GI50: 2320 nM
  TGI: 7.91 µM
[37]
  GI50: 3.21 µM
  TGI: 18.2 µM
[38]
  GI50: 1930 nM
  TGI: 3.82 µM
[39]
  GI50: 3.33 µM
  TGI: 16.2 µM
[40]
  GI50: 3.04 µM
  TGI: 8.01 µM
[41]
  GI50: > 28.8 µM
  TGI: > 100 µM
[42]
  GI50: 3.71 µM
  TGI: 17.2 µM
[43]
  GI50: 4.26 µM
  TGI: > 48.4 µM
[44]
  GI50: 1920 nM
  TGI: 4.41 µM
[45]
  GI50: 1940 nM
  TGI: 3.7 µM
[46]
  GI50: 2880 nM
  TGI: 6.46 µM
[47]
  GI50: 2000 nM
  TGI: 4.05 µM
[48]
  GI50: 2710 nM
  TGI: 6.94 µM
[49]
  GI50: 2340 nM
  TGI: 6.49 µM
[50]
  GI50: 2300 nM
  TGI: 5.54 µM
[51]
  GI50: 2330 nM
  TGI: 7.31 µM
[52]
  GI50: 3.08 µM
  TGI: 11.4 µM
[53]
  GI50: 2550 nM
  TGI: 15.3 µM
[54]
  GI50: 4.71 µM
  TGI: > 64.7 µM
[55]
  GI50: 2640 nM
  TGI: 6.52 µM
[56]
  GI50: 1770 nM
  TGI: 3.55 µM
[57]
  GI50: 2770 nM
  TGI: 8.82 µM
